Experimental data as given in US20030181390A1, “Amino acid conjugates providing for sustained systemic concentrations of GABA analogues” (priority 2002, published 2003).
Where two headings read alike, the source gives them in different places.

Legend:
in vivo [1] = conditions: rat; for Cmax for prodrug (Cmax PD) in plasma: single oral dose of prodrug, 25 mg-equivalents of gabapentin per kg
Experimental: The pharmacokinetics of the prodrugs prepared in Examples 1 and 3 were examined in rats. […] Animals were fasted overnight prior to dosing and until 4 hours post-dosing. Serial blood samples were obtained over 24 hours following dosing and blood was processed for plasma by centrifugation. Plasma samples were stored at −80° C. until analyzed.
Plasma (50 μL) was precipitated by addition of […] of methanol and supernatant was injected directly onto the LC/MS/MS system. […] Following oral administration of gabapentin prodrugs, concentrations of prodrug and gabapentin in plasma were monitored over 24 hours.

[2] = Caco-2 homogenate S9 stability / release of gabapentin; assay type: in vitro ADME; conditions: incubation with Caco-2 homogenate for 1 hour
Experimental: The stability of aminoacyl-gabapentin conjugates was evaluated by incubating the conjugates in the various tissue and enzyme-containing preparations listed in Table 1 below.
Tissue homogenates and plasma samples were obtained from commercial sources (Pel-Freez Biologicals, Rogers, Ariz., and GenTest Corporation, Woburn, Mass.). Stability of prodrugs toward the specific enzyme aminopeptidase was also evaluated by incubation with the purified enzyme. Experimental conditions used for the in vitro studies were as follows. Each preparation was incubated with test compound at 37° C. for one hour. Aliquots (50 μL) were removed at 0, 30, and 60 min and quenched with 0.1% trifluoroacetic acid in acetonitrile. Samples were then centrifuged and analyzed for the presence of prodrug and released gabapentin by LC/MS/MS as described below.
Concentrations of prodrug or gabapentin in tissue extracts were determined by direct injection onto an API 2000 LC/MS/MS equipped with an Agilent 1100 binary pump and autosampler. Separation was achieved using a 3.5 μm Zorbax Ellipse XDB-C8 4.4×150 mm column heated to 45° C. during the analysis. The mobile phases were: 0.1% formic acid in water (A) and 0.1% formic acid in acetonitrile (B). The gradient condition was: 2% B for 0.5 min, increasing to 90% B in 2.0 min, maintained for 2.5 min and returning to 2% B for 2 min. A TurboIonSpray source was used on the API 2000. The analysis was performed in the positive ion mode and MRM transitions of 172.0/137.2 were used in the analysis of gabapentin (2). Ten microliters of the sample extracts were injected. Peaks were integrated using Analyst quantitation software. The method was linear for (2) over the concentration range 0.002 to 2.5 μg/mL respectively.
The stability of gabapentin-containing prodrugs to Caco-2 homogenates was evaluated as follows:
Caco-2 Homogenate S9 Stability: Caco-2 cells were grown for 21 days prior to harvesting. Culture medium was removed and cell monolayers were rinsed and scraped off into ice-cold 10 mM sodium phosphate/0.15 M potassium chloride, pH 7.4. Cells were lysed by sonication at 4° C. using a probe sonicator. Lysed cells were then transferred into 1.5 mL centrifuge vials and centrifuged at 9000 g for 20 min at 4° C. The resulting supernatant (Caco-2 cell homogenate S9 fraction) was aliquoted into 0.5 mL vials and stored at −80° C. until used.
For stability studies, prodrug (5 μM) was incubated in Caco-2 homogenate S9 fraction (0.5 mg protein per mL) for 60 min at 37° C. Concentrations of intact prodrug and released drug were determined at zero time and 60 minutes using LC/MS/MS.

PEPT1 = conditions: tested at 1 mM on oocytes expressing PEPT1; normalised to 1 mM glycyl-sarcosine
Experimental: (§1) Rat and human PEPT1 and PEPT2 expressing CHO cell lines were prepared as described in PCT Application WO01/20331. Gabapentin-containing dipeptides were evaluated for interaction with the peptide transporters using a radiolabeled substrate uptake assay in a competitive inhibition format, as described in PCT Application WO01/20331. Transport-induced currents were also measured in Xenopus oocytes transfected with rat and human PEPT1 and PEPT2.
(§2) (b) Analysis of Electrogenic Transport in Xenopus oocytes
(§3) RNA preparation: Rat and human PEPT1 and PEPT2 transporter cDNAs were subcloned into a modified pGEM plasmid that contains 5′ and 3′ untranslated sequences from the Xenopus β-actin gene. These sequences increase RNA stability and protein expression. Plasmid cDNA was linearized and used as template for in vitro transcription (Epicentre Technologies transcription kit, 4:1 methylated:non-methylated GTP).
(§4) Xenopus oocyte isolation. Xenopus laevis frogs were anesthetized by immersion in Tricaine ([…] in deionized water) for 15 min. […]
(§5) Electrophysiology measurements. Transport currents were measured 2-14 days after injection, using a standard two-electrode electrophysiology set-up (Geneclamp 500 amplifier, Digidata 1320/PCLAMP software and ADInstruments hardware and software were used for signal acquisition).

PEPT2 = conditions: tested at 1 mM on oocytes expressing PEPT2; normalised to 1 mM glycyl-sarcosine
Experimental: as §1, §2, §3, §4, §5

[3] = monkey; for increase in gabapentin exposure (as measured by AUC) for a 7.5-fold increase in dose / AUC for gabapentin (AUC G) / Cmax for gabapentin (Cmax G): oral; for increase in gabapentin exposure (as measured by AUC) for a 7.5-fold increase in dose: 10 to 75 mg-eq/kg
Experimental: (§6) The prodrug was administered orally to four adult male monkeys (approximate body weight of 6.5 kg) via an oral nasogastric tubeas solutions in water or PEG 400. The dose was 10 or 75 mg-equivalents of gabapentin per kg body weight. Animals were fasted overnight before the study and for 4 hours post-dosing. Blood samples (1.0 mL) were obtained via femoral or cephalic venipuncture at intervals over 48 hours after oral dosing. Blood was processed immediately for plasma and plasma was frozen at −80° C. until analyzed. […] Oral bioavailability was determined by comparison of area under the gabapentin concentration versus time curve (AUC) following oral administration of prodrug or intravenous administration of an equimolar dose of gabapentin hydrochloride.

[4] = man, cited from earlier work
in vivo [5] = conditions: male, monkey, plasma, po
Experimental: as §6

[6] = rat, intracolonic, sodium salt, dose equivalent to 25 mg of gabapentin per kg
Experimental: Rats were obtained commercially and were pre-cannulated in the both the ascending colon and the jugular vein. Animals were conscious at the time of the experiment. All animals were fasted overnight and until 4 hours post-dosing. […] Blood samples (0.5 mL) were obtained from the jugular cannula at intervals over 8 hours and were quenched immediately by addition of acetonitrile/methanol to prevent further conversion of the prodrug.

[7] = rat; for fraction of prodrug absorbed intact following oral administration: oral and i.v. dosing of prodrug
[8] = monkey, sodium salt in water, 10 mg-equivalents of gabapentin per kg
[9] = male, Sprague-Dawley, plasma, po, 25 mg/kg

In the case of N#Cc1ccc(C[C@H](N)C(=O)NCC2(CC(=O)O)CCCCC2)cc1 [1am, L-4-Cyanophenylalanine-Gabapentin], the “Cmax for prodrug (Cmax PD) in plasma” value (in vivo [1]) is reported as 22400 ng/mL and the “% of prodrug surviving intact” value [2] is reported as 90%.

For N[C@@H](Cc1cccc2ccccc12)C(=O)NCC1(CC(=O)O)CCCCC1 [1l, L-1-Naphthylalanine-Gabapentin], the “Cmax for prodrug (Cmax PD) in plasma” value (in vivo [1]) was 500 ng/mL and the “% of prodrug surviving intact” value [2] was 29%.

With CC(C)C[C@H](CNC(=O)[C@@H](N)Cc1ccc(Br)cc1)CC(=O)O [compound 5, L-4-Bromophenylalanine-Pregabalin] the “PEPT-specific current, % of Imax for Gly-Sar” value (PEPT1) was “at least 5 % of Imax for Gly-Sar” and the “PEPT-specific current, % of Imax for Gly-Sar” value (PEPT2) was “at least 5 % of Imax for Gly-Sar”.

For NCC1(CC(=O)O)CCCCC1 [gabapentin], the Cmax (in vivo [1]; [9]) was 10300 ng/mL, the half-life (in vivo [1]; [9]) was 2.4 ± 0.5 h and the “increase in gabapentin exposure (as measured by AUC) for a 7.5-fold increase in dose” value [3] was 3.2 fold. For the same compound, the oral bioavailability ([4]; dose of 300 mg) was “about 60%”, the oral bioavailability ([4]; dose of 1600 mg) was “about 35%” and the AUC (in vivo [5]; 10 mg/kg) was 32100 ± 10400 ng·h/mL. For the same compound, the Cmax (in vivo [5]; 10 mg/kg) was 3700 ± 1600 ng/mL, the bioavailability (in vivo [5]; 10 mg/kg) was 53.9 ± 17.3% and the AUC (in vivo [5]; 75 mg/kg) was 102000 ± 4900 ng·h/mL. It also gave a Cmax (in vivo [5]; 75 mg/kg) of 10800 ± 1300 ng/mL and a bioavailability (in vivo [5]; 75 mg/kg) of 22.9 ± 1.1%.

With N[C@@H](Cc1ccc(Br)cc1)C(=O)NCC1(CC(=O)O)CCCCC1 [1ah, L-4-Bromophenylalanine-Gabapentin] the “oral bioavailability (F) as gabapentin” value (in vivo [1]; oral 25 mg/kg (or 25 mg-equivalents of gabapentin per kg) vs intravenous gabapentin) was 53%, the “maximum plasma concentration (Cmax) of gabapentin” value (in vivo [1]; single oral dose 25 mg/kg (or 25 mg-equivalents of gabapentin per kg)) was 6100 ng/mL and the “Cmax for prodrug (Cmax PD) in plasma” value (in vivo [1]) was 103000 ng/mL. For the same compound, the “% of prodrug surviving intact” value [2] was 79%, the “area under the gabapentin plasma concentration vs. time curve relative to colonic administration of gabapentin itself” value [6] was greater than 3 fold and the “maximum plasma concentration of gabapentin relative to colonic administration of gabapentin itself” value [6] was greater than 3 fold. The “fraction of prodrug absorbed intact following oral administration” value [7] was “about 60%”, the “oral bioavailability of gabapentin provided by prodrug” value ([7]; oral dosing of prodrug) was “about 53%” and the “AUC for gabapentin (AUC G)” value ([8]; oral) was 29100 ± 3500 ng·h/mL. The “AUC for prodrug (AUC PD)” value ([8]; oral) was 18900 ± 6500 ng·h/mL, the “Cmax for gabapentin (Cmax G)” value ([8]; oral) was 3800 ± 1100 ng/mL and the “CmaxPH (Cmax for prodrug)” value ([8]; oral) was 14900 ± 5300 ng/mL. The “oral bioavailability as gabapentin (F)” value [8] was 49.1±6.8%.

With N[C@@H](Cc1cc(F)cc(F)c1)C(=O)NCC1(CC(=O)O)CCCCC1 [1ao, L-3,5-Difluorophenylalanine-Gabapentin] the “Cmax for prodrug (Cmax PD) in plasma” value (in vivo [1]) was 2900 ng/mL and the “% of prodrug surviving intact” value [2] was 48%.

With N#Cc1cccc(C[C@H](N)C(=O)NCC2(CC(=O)O)CCCCC2)c1 [1al, L-3-Cyanophenylalanine-Gabapentin] the “Cmax for prodrug (Cmax PD) in plasma” value (in vivo [1]) was 600 ng/mL and the “% of prodrug surviving intact” value [2] was 46%.

With “L-Tyrosine-(O-2-Bromobenzyloxycarbonyl)-Gabapentin [4d]” the “% of prodrug surviving intact” value [2] was 3%.

For N[C@@H](CO)C(=O)NCC1(CC(=O)O)CCCCC1 [1ax, L-Serine-Gabapentin], the “oral bioavailability as gabapentin (F)” value ([3]; 10 mg-eq/kg) was 41.5±12.2%, the “oral bioavailability as gabapentin (F)” value ([3]; 75 mg-eq/kg) was 28.1±1.1% and the “AUC for gabapentin (AUC G)” value ([3]; 10 mg-eq/kg) was 24700 ± 7300 ng·h/mL. For the same compound, the “Cmax for gabapentin (Cmax G)” value ([3]; 10 mg-eq/kg) was 3700 ± 1100 ng/mL, the “AUC for gabapentin (AUC G)” value ([3]; 75 mg-eq/kg) was 125000 ± 5000 ng·h/mL and the “Cmax for gabapentin (Cmax G)” value ([3]; 75 mg-eq/kg) was 14500 ± 1600 ng/mL. For the same compound, the “increase in gabapentin exposure (as measured by AUC) for a 7.5-fold increase in dose” value [3] was 5.1 fold and the “fraction of prodrug absorbed intact following oral administration” value [7] was 15-20%.

With NC(Cc1ccc(F)cc1F)C(=O)NCC1(CC(=O)O)CCCCC1 [1ap, D, L-2,4-Difluorophenylalanine-Gabapentin] the “Cmax for prodrug (Cmax PD) in plasma” value (in vivo [1]) was 278000 ng/mL and the “% of prodrug surviving intact” value [2] was 90%.

In the case of N[C@@H](Cc1ccc(C(F)(F)F)cc1)C(=O)NCC1(CC(=O)O)CCCCC1 [1aa, L-4-Trifluoromethylphenylalanine-Gabapentin], the “Cmax for prodrug (Cmax PD) in plasma” value (in vivo [1]) is reported as 30000 ng/mL and the “% of prodrug surviving intact” value [2] is reported as 97%.
